{"source": "patent US20210177893A1", "about": "“Composition and method for treating and healing Medication-Related Osteonecrosis of the Jaw (MRONJ)” (priority 2019, published 2021)", "key": {"MRONJ [1]": {"test_system": "MRONJ", "details": "oral alendronate users, 208 patients; cited from earlier work"}, "MRONJ [2]": {"test_system": "MRONJ", "details": "out of 24 patients treated with 0.12% chlorhexidine; cited from earlier work"}, "[3]": {"test_system": "capillary neoangiogenesis", "details": "cited from earlier work"}, "[4]": {"details": "in the glycerin gels; cited from earlier work"}, "[5]": {"test_system": "oral mucosal cells (human gingival fibroblasts and keratinocytes)", "details": "direct application, in vitro; cited from earlier work"}, "MRONJ lesions": {"test_system": "MRONJ lesions", "assay": "Clinical observation of MRONJ patients (Example 1)", "assay_type": "in vivo, human", "details": "one patient on intravenous zoledronate, multiple myeloma; lesion smoothed, antibiotic regimen; observed a little over a year"}}, "data": [{"molecule": "NCCCC(O)(P(=O)(O)O)P(=O)(O)O", "note": "[alendronate]", "values": [{"measurement": "MRONJ prevalence rate", "setting": "MRONJ [1]", "value": 4, "unit": "%"}]}, {"molecule": "[H]/N=C(\\N/C(=N/[H])NCCCCCCNC(=N)NC(=N)Nc1ccc(Cl)cc1)Nc1ccc(Cl)cc1", "note": "[chlorhexidine]", "values": [{"measurement": "patients who experienced MRONJ progression", "setting": "MRONJ [2]", "value": 13, "unit": "patients"}, {"measurement": "patients who experienced MRONJ resolution", "setting": "MRONJ [2]", "value": 3, "unit": "patients"}, {"measurement": "patients who experienced no change in ONJ status", "setting": "MRONJ [2]", "value": 8, "unit": "patients"}]}, {"molecule": "NCCC(O)(P(=O)(O)O)P(=O)(O)O", "note": "[pamidronate]", "values": [{"measurement": "effect on new formation of capillaries from blood vessels (capillary neoangiogenesis)", "setting": "[3]", "value": "inhibit the new formation of capillaries from blood vessels"}]}, {"molecule": "[F][Sn][F]", "note": "[stannous fluoride]", "values": [{"measurement": "stability", "setting": "[4]", "value": "relatively stable"}]}, {"molecule": "O=P(O)(O)C(O)(Cn1ccnc1)P(=O)(O)O", "note": "[zoledronic acid]", "values": [{"measurement": "effect on the life of oral mucosal cells", "setting": "[5]", "value": "deleterious effect on the life of these cells"}]}, {"molecule": "Augmentin", "values": [{"measurement": "outcome of bone lesion", "setting": "MRONJ lesions", "value": "continued to increase in size and did not heal"}]}]}
